Measurements: PubChem BioAssay (NCI)
Several values for one entry are separate records, joined by “and”; a condition that tells them apart may be missing. Identical values can stand only once.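 In this assay, cells in 96-well plates receive the compound at five concentrations for 48 hours. Endpoints are linearly interpolated between the surrounding concentrations. At the GI50, growth is halved. Definition used: TGI = concentration required for complete inhibition of growth.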 Peptide text beside a SMILES is read from it. * marks the point of attachment. X34 = O=C(c1ccc(-c2ccc(Cl)cc2Cl)o1)*

Assays:
Assay in all cases: inhibition of tumour cell growth, NCI panel, 48 h
[1] = system: ACHN renal
[2] = system: BT-549 breast
[3] = system: HCT-15 colon
[4] = system: HOP-62 NSCLC
[5] = system: HOP-92 NSCLC
[6] = system: IGROV1 ovarian
[7] = system: KM12 colon
[8] = system: MALME-3M melanoma
[9] = system: NCI-H226 lung
[10] = system: OVCAR-4 ovarian
[11] = system: OVCAR-5 ovarian
[12] = system: RXF 393 renal
[13] = system: SK-MEL-2 melanoma
[14] = system: TK-10 renal
[15] = system: U251 CNS
[16] = system: UACC-62 melanoma
[17] = system: UO-31 renal
[18] = system: MOLT-4 leukemia
[19] = system: RPMI-8226 leukemia

Row | SMILES | TGI [1] | TGI [2] | TGI [3] | TGI [4] | TGI [5] | TGI [6] | TGI [7] | TGI [8] | TGI [9] | TGI [10] | TGI [11] | TGI [12] | TGI [13] | TGI [14] | TGI [15] | TGI [16] | TGI [17] | TGI [18] | TGI [19] | GI50 [18]
1 | CC(C)CNCCc1ccccn1 | > 100 µM | > 100 µM | > 100 µM | > 100 µM | > 100 µM | > 100 µM | > 100 µM | > 100 µM | > 100 µM | > 100 µM | > 100 µM | > 100 µM | > 100 µM | > 100 µM | > 100 µM | > 100 µM | > 100 µM | – | – | –
2 | O=C1CCCCN1 | – | – | > 1120 µM | > 1120 µM | > 1120 µM | > 1120 µM | > 1120 µM | > 1120 µM | > 1120 µM | > 1120 µM | > 1120 µM | > 1120 µM | > 1120 µM | – | > 1120 µM | > 1120 µM | > 1120 µM | > 1120 µM | > 1120 µM | –
3 | CC1=C[C@H]([C@H]2C=C(C)C(C(N)=O)=CN2Cc2c(Cl)cccc2Cl)N(Cc2c(Cl)cccc2Cl)C=C1C(N)=O | > 75 µM | > 75 µM | > 75 µM | > 75 µM | 65.8 µM | – | > 75 µM | > 75 µM | > 75 µM | > 75 µM | > 75 µM | > 75 µM | > 75 µM | > 75 µM | > 75 µM | > 75 µM | > 75 µM | > 75 µM | > 75 µM | –
4 | COc1ccc(C(=O)c2nc3ccccc3nc2N2CCN(c3ccccc3)CC2)cc1OC | > 100 µM | – | > 100 µM | > 100 µM | > 100 µM | > 100 µM | > 100 µM | > 100 µM | – | > 100 µM | > 100 µM | > 100 µM | > 100 µM | > 100 µM | > 100 µM | > 100 µM | > 100 µM | > 100 µM | > 100 µM | –
5 | C1=CC=C2NCCc3cccc(c3)CCNC3=CC=CC=CC3=NCCCCCCN=C2C=C1 | > 100 µM | – | 56.3 µM | 34.4 µM | 54 µM | > 100 µM | 47.3 µM | > 100 µM | 86 µM | 39 µM | 47.8 µM | 32.4 µM | 79.8 µM | – | > 100 µM | 50.7 µM | 89.1 µM | 38.3 µM | 31.1 µM | –
6 | COC(=O)C(CC(C)C)NC(=O)C(Cc1ccccc1)NC(=O)C1CCCN1C(=O)C(CO)NC(=O)c1ccc(-c2ccc(Cl)cc2Cl)o1 (centres undefined) (X34-SPFL-OMe; configuration not given here) | > 100 µM | 75.7 µM | 72.6 µM | – | 63.9 µM | – | > 100 µM | > 100 µM | 44.9 µM | > 100 µM | 50.4 µM | 44.7 µM | 33.7 µM | 67.5 µM | 55.9 µM | > 100 µM | 65.2 µM | 80 µM | 44.2 µM | –
7 | CC(=O)OCCCCN1C(=O)CSc2ccccc21 | > 100 µM | > 100 µM | > 100 µM | > 100 µM | > 100 µM | > 100 µM | > 100 µM | – | – | > 100 µM | > 100 µM | > 100 µM | > 100 µM | > 100 µM | > 100 µM | > 100 µM | > 100 µM | > 100 µM | > 100 µM | –
8 | COc1nc2ccc(CNc3ccc(C(=O)NC(CCC(=O)O)C(=O)O)cc3)cc2nc1OC (centres undefined) | > 100 µM | > 100 µM | > 100 µM | > 100 µM | – | > 100 µM | > 100 µM | > 100 µM | > 100 µM | > 100 µM | > 100 µM | > 100 µM | > 100 µM | > 100 µM | > 100 µM | > 100 µM | > 100 µM | > 100 µM | > 100 µM | –
9 | CCCCC(=O)c1c(O)ccc2c(C)cc(=O)oc12 | > 100 µM | > 100 µM | > 100 µM | > 100 µM | > 100 µM | > 100 µM | > 100 µM | > 100 µM | > 100 µM | > 100 µM | > 100 µM | > 100 µM | > 100 µM | > 100 µM | > 100 µM | > 100 µM | > 100 µM | > 100 µM | > 100 µM | –
10 | CN1c2c(nc(N)[nH]c2=O)NCC1CCNc1ccc(C(=O)NC(CCC(=O)O)C(=O)O)cc1 (centres undefined) | 2000 µM | 2750 µM | 3010 µM | 1930 µM | 2900 µM | 2470 µM | 2220 µM | 2770 µM | 3050 µM | 2400 µM | 2880 µM | 2490 µM | 3050 µM | 2500 µM | 2080 µM | 1650 µM | 2590 µM | 2650 µM | 2930 µM | –
11 | CC[C@@H]1CSC(/C=C/C2OC3OC(C)(C)OC3C3OC(C)(C)OC23)=N1 (some centres undefined) | 21.2 µM | 13.4 µM | 15.3 µM | 59.4 µM | 19.2 µM | 26 µM | 33.3 µM | 23.8 µM | 35.9 µM | 17.7 µM | 22.8 µM | 9.59 µM | 29.8 µM | 14.6 µM | 26.4 µM | 26.8 µM | 22.8 µM | 26.6 µM | 32.5 µM | –
12 | CCOc1ccccc1Nc1ccc(N)cc1S(=O)(=O)O | > 100 µM | > 100 µM | > 100 µM | > 100 µM | > 100 µM | > 100 µM | > 100 µM | > 100 µM | > 100 µM | > 100 µM | > 100 µM | > 100 µM | > 100 µM | > 100 µM | > 100 µM | > 100 µM | > 100 µM | > 100 µM | – | –
13 | CC(C)C1=CC2=CC[C@@H]3[C@](C)(CCC[C@@]3(C)C(=O)O)[C@H]2CC1 | > 100 µM | – | > 87 µM | > 100 µM | > 84.6 µM | > 100 µM | > 100 µM | > 100 µM | > 100 µM | > 100 µM | > 100 µM | 97.4 µM | > 78.9 µM | > 100 µM | > 100 µM | 68.3 µM | > 82.7 µM | > 75.7 µM | > 79.7 µM | –
14 | O=C1/C(=C/C=C/c2ccccc2)N=C(c2ccccc2)N1c1ccc(S(=O)(=O)Nc2nccs2)cc1 | 34.5 µM | 61.4 µM | > 100 µM | > 100 µM | > 100 µM | 44.5 µM | > 100 µM | > 100 µM | 55.5 µM | > 100 µM | > 100 µM | 30.1 µM | 86.6 µM | > 100 µM | 59.3 µM | 61.7 µM | 29.9 µM | > 100 µM | 68.2 µM | –
15 | N#Cc1ccc([N+](=O)[O-])cc1NC(N)=S | – | – | > 100 µM | > 100 µM | > 100 µM | > 100 µM | > 100 µM | > 100 µM | – | – | > 100 µM | – | > 100 µM | – | > 100 µM | – | > 100 µM | > 100 µM | > 100 µM | –
16 | CC[C@@]1(O)C[C@H](OC2CC(N(C)C)C(OC3CC(O)C(OC4CCC(=O)C(C)O4)C(C)O3)C(C)O2)c2c(cc3c(c2O)C(=O)c2c(O)cccc2C3=O)C1C(=O)OC (some centres undefined) | 2.15 µM | – | 1.2 µM and 3.13 µM | 1.58 µM | 0.0897 µM | – | – | 0.0948 µM and 0.569 µM | – | 0.117 µM | 3.11 µM and 1.56 µM | 0.157 µM | 0.0581 µM and 0.425 µM | – | 2.72 µM and 9.24 µM | 0.26 µM and 0.527 µM | – | 0.655 µM | – | 0.00383 µM
17 | CC(=O)OCC1=CC2OC(=O)C3=COC(OC4OC(CO)C(O)C(O)C4O)C1C32 (centres undefined) | > 100 µM | > 100 µM | > 100 µM | > 100 µM | > 100 µM | > 100 µM | > 100 µM | – | > 100 µM | > 100 µM | > 100 µM | – | > 100 µM | > 100 µM | > 100 µM | > 100 µM | > 100 µM | – | > 100 µM | –
18 | C=CCn1c(=O)c(Br)nn(CCOCP(=O)(OCC)OCC)c1=O | > 100 µM | – | > 100 µM | > 100 µM | > 100 µM | > 100 µM | > 100 µM | > 100 µM | > 100 µM | – | > 100 µM | > 100 µM | > 100 µM | – | > 100 µM | – | > 100 µM | > 100 µM | > 100 µM | –
19 | Nc1ncnc2c1ncn2[C@@H]1O[C@H](COP(=O)(O)OP(=O)(O)OC[C@H]2O[C@@H](OCCCO)[C@H](O)[C@@H]2O)[C@@H](O)[C@H]1O | > 100 µM | > 100 µM | > 100 µM | > 100 µM | > 100 µM | > 100 µM | > 100 µM | > 100 µM | > 100 µM | > 100 µM | > 100 µM | > 100 µM | > 100 µM | > 100 µM | > 100 µM | > 100 µM | > 100 µM | > 100 µM | > 100 µM | –
20 | O=S(=O)(O)c1cc(S(=O)(=O)O)c2c(N=Nc3ccc(S(=O)(=O)O)c4ccccc34)c(O)ccc2c1 | > 100 µM | > 100 µM | > 100 µM | > 100 µM | > 100 µM | > 100 µM | > 100 µM | > 100 µM | > 100 µM | > 100 µM | > 100 µM | > 100 µM | > 100 µM | > 100 µM | > 100 µM | > 100 µM | > 100 µM | > 100 µM | > 100 µM | –
21 | CC(ON1[C@](C)(c2ccccc2)CC[C@@]1(C)c1ccccc1)c1ccccc1 (some centres undefined) | – | 42.2 µM | > 100 µM | > 100 µM | > 100 µM | > 100 µM | > 100 µM | > 100 µM | > 100 µM | > 100 µM | > 100 µM | 46 µM | 50.5 µM | > 100 µM | > 100 µM | – | > 100 µM | 46.1 µM | 58.2 µM | –
22 | CN(C)c1ccc(C2CC(=O)CC(c3ccc(N(C)C)cc3)C23C(=O)NC(=S)NC3=O)cc1 (centres undefined) | > 100 µM | – | > 100 µM | 45.6 µM | > 100 µM | – | > 100 µM | > 100 µM | > 100 µM | > 100 µM | > 100 µM | > 100 µM | > 100 µM | > 100 µM | > 100 µM | > 100 µM | > 100 µM | > 100 µM | > 100 µM | –
23 | O=C1NC(=NCc2ccc(F)cc2)N/C1=C\c1ccccc1Cl | 49.1 µM | 56.8 µM | 71.2 µM | 35.3 µM | 24.9 µM | > 100 µM | 53.9 µM | 41.8 µM | 69.3 µM | 74.3 µM | 41 µM | 48.2 µM | 33.3 µM | 67.4 µM | 30.4 µM | 29.8 µM | – | > 100 µM | – | –
